Experimental data: PMC3703859 (Neuropharmacology, 2010)

What was measured:
Assay in all cases: [^3H]CFT binding on intact transfected COS7 cells
human DAT A479V/A480V = human DAT A479V/A480V (Homo sapiens, UniProt Q01959, A479V/A480V)
human DAT V152A = human DAT V152A (Homo sapiens, UniProt Q01959, V152A); settings: V152A, intact COS7 cells
human DAT V152I = human DAT V152I (Homo sapiens, UniProt Q01959, V152I); settings: V152I, intact COS7 cells
wild type human DAT = wild type human DAT (Homo sapiens, UniProt Q01959); settings: WT DAT
wild type human DAT, sequence (Q01959 whole entry): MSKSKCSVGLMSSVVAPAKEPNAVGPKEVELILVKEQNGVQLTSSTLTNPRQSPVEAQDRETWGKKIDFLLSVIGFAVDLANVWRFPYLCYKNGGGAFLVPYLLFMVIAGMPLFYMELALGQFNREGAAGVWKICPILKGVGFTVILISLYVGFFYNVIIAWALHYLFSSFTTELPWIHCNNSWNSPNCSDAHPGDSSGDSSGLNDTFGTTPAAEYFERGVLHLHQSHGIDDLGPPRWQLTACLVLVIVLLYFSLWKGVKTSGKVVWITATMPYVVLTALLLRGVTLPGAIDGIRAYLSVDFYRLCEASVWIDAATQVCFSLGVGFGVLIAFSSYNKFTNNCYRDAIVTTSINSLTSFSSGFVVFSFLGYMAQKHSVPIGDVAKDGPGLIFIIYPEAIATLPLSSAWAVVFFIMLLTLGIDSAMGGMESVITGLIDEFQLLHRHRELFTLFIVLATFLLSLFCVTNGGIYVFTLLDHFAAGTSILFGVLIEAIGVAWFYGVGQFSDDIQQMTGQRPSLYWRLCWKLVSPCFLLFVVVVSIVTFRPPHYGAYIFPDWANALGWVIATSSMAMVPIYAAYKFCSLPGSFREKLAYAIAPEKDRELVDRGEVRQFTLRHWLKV

human DAT A479V/A480V, sequence (Q01959 whole entry A479V/A480V): as the sequence (Q01959 whole entry) above, with A479V, A480V counted along it
human DAT V152I, sequence (Q01959 whole entry V152I): as the sequence (Q01959 whole entry) above, with V152I counted along it
human DAT V152A, sequence (Q01959 whole entry V152A): as the sequence (Q01959 whole entry) above, with V152A counted along it

For `COC(=O)[C@H]1[C@@H](c2ccc(F)cc2)C[C@@H]2CC[C@H]1N2C` [CFT, (−)-2β-carbomethoxy-3β-(4-fluorophenyl)tropane], the “Bmax ± S.E. of [^3H]CFT binding” value (human DAT A479V/A480V) was 310 ± 44 fmol/10^5 cells, the “Bmax ± S.E. of [^3H]CFT binding” value (human DAT V152A) was 380 ± 99 fmol/10^5 cells and the “Bmax ± S.E. of [^3H]CFT binding” value (human DAT V152I) was 215 ± 58 fmol/10^5 cells. The “Bmax ± S.E. of [^3H]CFT binding” value (wild type human DAT) was 386 ± 89 fmol/10^5 cells.
